Laboratory results published in patent USRE39021E1, “Hydantoin-enhanced halogen efficacy in pulp and paper applications” (Lonza Inc., priority 1994, dated 2006).

Key:
[1] = test system: P. Aeruginosa and E. Aerogenes; assay: Example 1: pulp slurry bactericidal efficacy (modified ASTM E 600-91), biocide added 10 minutes prior to inoculation; format: cell-based; settings: for Final Bacteria: inoculum 2×10^6 cfu/ml, 3 hours after inoculation
Protocol: (§1) The addition of 5,5-dimethylhydantoin (DMH) to sodium hypochlorite solutions enhances the biocidal activity of sodium hypochlorite. The conditions of this experiment were a modification of ASTM E 600-91. Two biocide solutions were evaluated: NaOCl and NaOCl mixed with DMH in a 0.25:1 molar ratio. The NaOCl and the DMH were mixed prior to pulp introduction. The biocides were introduced to the pulp slurry 10 minutes prior to inoculation with 2×10^6 cfu/ml P. Aeruginosa and E. Aerogenes. The pulp slurry consisted of 1.3% ground aspen wood pulp and 200 ppm rosin adjusted to pH=5.0-5.5 with aluminum sulfate. Bacteria populations were measured 3 hours after pulp slurry inoculation. Final total halogen concentrations were measured at the time of bacterial population plating by sample centrifuging followed by standard DPD analyses. Biocides were neutralized with sodium thiosulfate prior to plating.

[2] = test system: P. Aeruginosa and E. Aerogenes; assay: Example 3: bactericidal efficacy in preinoculated pulp slurry samples; format: cell-based; settings: for Final Bacteria: pulp inoculated 5 minutes prior to biocide
Protocol: as §1
(§2) The conditions were the same as Example 1 except that the pulp was inoculated with bacteria 5 minutes prior to biocide introduction as opposed to 10 minutes after. Also the NaOCl to DMH mole ratio was increased from 0.25:1 to 1:1.

[3] = test system: P. Aeruginosa and E. Aerogenes; assay: Example 2: bactericidal efficacy of NaOCl added to DMH-treated pulp slurry; format: cell-based; settings: for Final Bacteria: NaOCl added to pulp slurry (DMH-treated for 1:1 system)
Protocol: as §1
(§3) Prereaction of DMH with NaOCl as described in Example 1 was not required. The conditions of this experiment were in other respects the same as Example 1. The molar ratio in the pulp slurry was 1:1 NaOCl to DMH.

[4] = test system: P. Aeruginosa and E. Aerogenes; assay: Example 5: pulp slurry bactericidal efficacy of NaOCl with N-hydrogen compounds (1:1); format: cell-based; settings: for log reduction of bacteria: 5 ppm halogen; for log reduction of bacteria / efficacy enhancement over sodium hypochlorite alone: Example 5; for efficacy enhancement over sodium hypochlorite alone / Final Bacteria: NaOCl to N-hydrogen compound 1:1 molar
Protocol: as §1
(§4) The conditions were the same as those of Example 1. The molar ratio of the NaOCl to N-hydrogen compound was 1:1.

[5] = Example 5: final total halogen in pulp slurry with N-hydrogen compounds; format: physicochemical; settings: for % Residual Halogen / Total Halogen Final: NaOCl to N-hydrogen compound 1:1 molar
Protocol: as §1, §4

bacteria = settings: residual chlorine concentrations of 1.6 ppm as Cl2; U.S. Pat. No. 3,328,294; cited from earlier work
[6] = Example 7: final total halogen in pulp slurry; format: physicochemical; settings: conditions of Example 1
Protocol: as §1
(§5) Specifically, Dantochlor®, a commercial halogenated hydantoin containing predominantly dichlorodimethylhydantoin and dichloroethylmethylhydantoin was used. The conditions were the same as those of Example 1.

[7] = Example 4: halogen consumption in non-inoculated pulp slurry vs NaOCl:DMH molar ratio; format: physicochemical; settings: initial total halogen 25.6 ppm as Cl2; pulp slurry not inoculated
Protocol: as §1, §3
The experimental conditions were the same as those of Example 2, except that the pulp slurry was not inoculated with bacteria.

[8] = test system: P. Aeruginosa and E. Aerogenes; assay: Example 7: pulp slurry bactericidal efficacy of N-halohydantoin compound; format: cell-based; settings: conditions of Example 1
Protocol: as §1, §5

[9] = Example 1: final total halogen in pulp slurry (DPD analyses); format: physicochemical; settings: 3 hours after inoculation; for Total Halogen Final: 1.3% aspen pulp slurry pH 5.0-5.5; for % Residual Halogen: pulp slurry pH 5.0-5.5
Protocol: as §1

[10] = Example 2: final total halogen in DMH-treated pulp slurry; format: physicochemical; settings: NaOCl added to pulp slurry (DMH-treated for 1:1 system)
Protocol: as §1, §3

[11] = Example 3: final total halogen in preinoculated pulp slurry; format: physicochemical; settings: pulp inoculated 5 minutes prior to biocide
Protocol: as §1, §2

[12] = initial total halogen 5.0 ppm as Cl2
[13] = initial total halogen 7.5 ppm as Cl2
[14] = initial total halogen 1.0 ppm as Cl2
[15] = initial total halogen 3.0 ppm as Cl2
[16] = initial total halogen 10 ppm as Cl2
[17] = initial total halogen 3 ppm as Cl2
[18] = initial total halogen 5 ppm as Cl2
[19] = initial total halogen 15 ppm as Cl2
[20] = initial total halogen 0.8 ppm as Cl2
[21] = initial total halogen 3.4 ppm as Cl2
[22] = initial total halogen 16.3 ppm as Cl2

Compound: CC1(C)NC(=O)NC1=O [DMH, 5,5-dimethylhydantoin]
- increase in efficacy of NaOCl in the presence of DMH ([1]; 1 ppm halogen with DMH equivalent to 5 ppm halogen alone, Example 1): fivefold
- log reduction of bacteria ([2]; dosage 0.8 ppm halogen, in the presence of DMH, preinoculated samples, Example 3): 3 log
- increase in efficacy of NaOCl in the presence of DMH ([3]; 3 ppm with DMH vs 5 ppm in its absence, Example 2): twofold
- log reduction in bacteria concentration ([3]; initial halogen concentration 3 ppm, in the presence of DMH, Example 2): 2 log

Compound: CCC1(C)NC(=O)NC1=O (stereo not drawn) [MEH, 5-ethyl-5-methylhydantoin]
- log reduction of bacteria [4]: 3 log
- efficacy enhancement over sodium hypochlorite alone [4]: dramatically increased NaOCl efficacy
- mitigation of halogen decomposition ([5]; compared with cyanuric acid, Example 5): greatest mitigation of halogen decomposition

Compound: O=S(=O)(O)NCl [N-chlorosulfamate]
- bacterial concentrations achieved (bacteria): 10^3 cfu/ml

Compound: [Na+].[O-]Cl [NaOCl, sodium hypochlorite]
- % Residual Halogen [6, 12]: 0.4%
- Total Halogen Final [6, 12]: 0.02 ppm as Cl2
- % Residual Halogen [6, 13]: 1%
- Total Halogen Final [6, 13]: 0.05 ppm as Cl2
- Final Bacteria [1, 14]: 10^5 cfu/ml
- Final Bacteria [1, 15]: 10^4 cfu/ml
- Final Bacteria [1, 12]: ≦10^3 cfu/ml
- Final Bacteria [1, 13]: ≦10^3 cfu/ml
- Final Bacteria [1, 16]: ≦10^3 cfu/ml
- % Residual Halogen [7]: 0.4%
- Total Halogen Final [7]: 0.11 ppm as Cl2
- log reduction of bacteria [4]: 1 log
- Final Bacteria [4, 14]: 10^6 cfu/ml
- Final Bacteria [4, 15]: 10^5 cfu/ml
- Final Bacteria [4, 12]: 10^5 cfu/ml
- Final Bacteria [8, 12]: ≦10^3 cfu/ml
- Final Bacteria [8, 13]: ≦10^3 cfu/ml
- Total Halogen Final [9, 14]: 0.00 ppm as Cl2
- % Residual Halogen [9, 14]: 0%
- Total Halogen Final [9, 15]: 0.00 ppm as Cl2
- % Residual Halogen [9, 15]: 0%
- Total Halogen Final [9, 12]: 0.00 ppm as Cl2
- % Residual Halogen [9, 12]: 0%
- Total Halogen Final [9, 13]: 0.04 ppm as Cl2
- % Residual Halogen [9, 13]: 0.5%
- Total Halogen Final [9, 16]: 0.08 ppm as Cl2
- % Residual Halogen [9, 16]: 0.8%
- % Residual Halogen [10, 17]: 0.0%
- Total Halogen Final [10, 17]: 0.00 ppm as Cl2
- % Residual Halogen [10, 18]: 0.4%
- Total Halogen Final [10, 18]: 0.02 ppm as Cl2
- % Residual Halogen [10, 13]: 0.5%
- Total Halogen Final [10, 13]: 0.06 ppm as Cl2
- % Residual Halogen [10, 16]: 0.4%
- Total Halogen Final [10, 16]: 0.04 ppm as Cl2
- % Residual Halogen [10, 19]: 0.7%
- Total Halogen Final [10, 19]: 0.11 ppm as Cl2
- Final Bacteria [2, 20]: 10^4 cfu/ml
- Final Bacteria [2, 21]: <10^3 cfu/ml
- Final Bacteria [2, 22]: <10^3 cfu/ml
- Final Bacteria [3, 17]: 10^5 cfu/ml
- Final Bacteria [3, 18]: 10^4 cfu/ml
- Final Bacteria [3, 13]: <10^3 cfu/ml
- Final Bacteria [3, 16]: <10^3 cfu/ml
- Final Bacteria [3, 19]: <10^3 cfu/ml
- % Residual Halogen [5, 14]: 0.0%
- Total Halogen Final [5, 14]: 0.00 ppm as Cl2
- % Residual Halogen [5, 15]: 0.7%
- Total Halogen Final [5, 15]: 0.02 ppm as Cl2
- % Residual Halogen [5, 12]: 0.6%
- Total Halogen Final [5, 12]: 0.03 ppm as Cl2
- % Residual Halogen [11, 20]: 1.3%
- Total Halogen Final [11, 20]: 0.01 ppm as Cl2
- % Residual Halogen [11, 21]: 1.0%
- Total Halogen Final [11, 21]: 0.03 ppm as Cl2
- % Residual Halogen [11, 22]: 2.1%
- Total Halogen Final [11, 22]: 0.34 ppm as Cl2

Compound: NS(=O)(=O)O [Sulfamic acid, sulfamic acid]
- efficacy enhancement over sodium hypochlorite alone [4]: no efficacy enhancement
